Reference: patent US12590062B2, “PD-1/PD-L1 inhibitors” (Gilead Sciences, Inc., priority 2017, dated 2026)
pEC50, pIC50: −log10 of the molar value.

Legend:
PD-L1 = target: T1, PD-L1 (Homo sapiens, UniProt Q9NZQ7); experiment: PD-L1/PD-L1 dimerization biochemical protein-protein interaction assay (ALPHA); assay type: binding; conditions: compound-induced PD-L1 dimerization, head prints '1 nM' (0.5 nM His-tagged PD-L1 and 0.5 nM FLAG-tagged PD-L1), read-out: AC50 PDL1 Dimer Alpha 1 nM
T1 construct: determine if they can specifically dimerize the extracellular domains of PD-L1
T1 sequence (Q9NZQ7 19-238 limits assumed): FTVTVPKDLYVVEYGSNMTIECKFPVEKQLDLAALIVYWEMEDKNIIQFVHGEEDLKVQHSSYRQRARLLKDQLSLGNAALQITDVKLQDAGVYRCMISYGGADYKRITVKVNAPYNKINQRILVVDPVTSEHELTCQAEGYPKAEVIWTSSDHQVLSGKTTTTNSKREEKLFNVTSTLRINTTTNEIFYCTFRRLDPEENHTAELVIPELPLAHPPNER
T1 sequence (Q9NZQ7 19-238 limits assumed): as above
In short: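 After 2 h at 25 °C with compound, His- and FLAG-tagged PD-L1 ECDs (each 0.5 nM final; 25 mM Hepes pH 7.4, 150 mM NaCl) were detected by sequential anti-His acceptor and anti-FLAG donor bead incubations. Dose-response curves fitted to four-parameter equation for AC50.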

PD-1/PD-L1 interaction = target: T2, PD-1/PD-L1 interaction (Homo sapiens, UniProt Q9NZQ7); experiment: PD-1/PD-L1 NFAT reporter co-culture assay; assay type: cell-based; conditions: Jurkat PD-1 NFAT-luciferase cells co-cultured with aAPC-PD-L1 CHO cells, 6 hrs at 37° C.; read-out: EC50 NFAT Luciferase
T2 construct: expressed in transfected cells; host or cells: CHO cells (aAPC-PD-L1) co-cultured with Jurkat cells overexpressing PD-1 and an NFAT-luciferase reporter
T2 sequence (Q9NZQ7 19-290): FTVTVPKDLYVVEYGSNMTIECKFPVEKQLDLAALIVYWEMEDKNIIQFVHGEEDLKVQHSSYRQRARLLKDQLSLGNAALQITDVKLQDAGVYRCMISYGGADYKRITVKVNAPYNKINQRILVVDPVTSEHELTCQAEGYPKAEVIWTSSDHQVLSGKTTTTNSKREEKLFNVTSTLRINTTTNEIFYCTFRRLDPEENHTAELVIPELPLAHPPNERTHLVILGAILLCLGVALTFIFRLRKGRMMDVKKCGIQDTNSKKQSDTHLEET
In short: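 CHO aAPC-PD-L1 seeded overnight; PD-1/NFAT-luc Jurkat + cpd in RPMI 1640, 2% FBS added at once; 6 h, 37 °C; ONE-Glo luminescence; EC50, 4-parameter fit.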

PD-1/PD-L1 = PD-1/PD-L1 (Homo sapiens, UniProt Q9NZQ7); experiment: PD-1/PD-L1 biochemical protein-protein interaction assay (ALPHA); assay type: binding; conditions: 0.3 nM His tagged PD-L1, 2.5 nM biotinylated Fc-PD-1, 60 minutes at 25° C., read-out: IC50 PD-L1-PD-1 Alpha IC50-mono PD-L1-fcP-D1
Chain of PD-1/PD-L1 (Q9NZQ7 19-238 limits assumed): as the sequence (Q9NZQ7 19-238 limits assumed) above
In short: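 His-PD-L1 ECD 0.3 nM + biotin-Fc-PD-1 2.5 nM (final), 25 mM Hepes pH 7.4, 150 mM NaCl, 3.4 mM EDTA; 60 min, 25° C; anti-His acceptor/streptavidin donor ALPHA beads; decreased signal = blocked binding; 4-parameter IC50.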

| Structure (SMILES) | AC50 (PD-L1) [nM] | pEC50 (PD-1/PD-L1 interaction) | pIC50 (PD-1/PD-L1) |
| --- | --- | --- | --- |
| Cc1c(COc2cc(OCc3cncc(C#N)c3)c(CNC(C)(CO)C(=O)O)cc2Cl)cccc1-c1cccc(-c2ccc(CN3CCC4(CC3)CNC4=O)cc2)c1C (stereo not drawn) [Example 443] | 154 | 6.56 | 10.19 |
| Cc1c(COc2cc(OCc3cncc(C#N)c3)c(CNC(C)(CO)C(=O)O)cc2Cl)cccc1-c1cccc(-c2ccc(CN3CCC4(CNC(=O)C4)C3)cc2)c1C (stereo not drawn) [Example 444] | 133 | 6.53 | 10.19 |
| Cc1c(COc2cc(OCc3cncc(C#N)c3)c(CN[C@@](C)(CO)C(=O)O)cc2Cl)cccc1-c1cccc(-c2ccc(O[C@@H]3CCNC[C@H]3F)cc2)c1Cl [Example 445] | 266 | 5.83 | 9.14 |
| Cc1c(COc2cc(OCc3cncc(C#N)c3)c(CNC[C@@H](O)CC(=O)O)cc2Cl)cc(F)cc1-c1cccc(-c2ccc(OCCN3CC[C@@H](O)C3)cc2)c1C [Example 446] | 458 | 6.50 | 9.34 |
| Cc1c(COc2cc(OCc3cncc(C#N)c3)c(CNC[C@@H](O)CC(=O)O)cc2Cl)cccc1-c1cccc(-c2ccc3c(c2)CC(=O)N3CCN(C)C)c1C [Example 448] | 903 | 6.00 | 9.21 |
| Cc1c(COc2cc(OCc3cncc(C#N)c3)c(CNC[C@@H](O)CC(=O)O)cc2Cl)cccc1-c1cccc(-n2cc(CN3CCCC3)nn2)c1C [Example 449] | 1490 | 5.59 | 9.19 |
| Cc1c(COc2cc(OCc3cncc(C#N)c3)c(CNCCO)cc2Cl)cccc1-c1cccc(-c2ccc(CN(C)C)cc2)c1Br [Example 450] | 110 | 6.56 | 8.81 |
| Cc1c(COc2cc(OCc3cncc(C#N)c3)c(CNC(C)(CO)C(=O)O)cc2Cl)cccc1-c1cccc(-c2ccc(CN3CC4(CNC4)C3)cc2)c1C (stereo not drawn) [Example 451] | 105 | 6.33 | 9.98 |
| Cc1c(COc2cc(OCc3cncc(C#N)c3)c(CNC[C@@H](O)CC(=O)O)cc2Cl)cccc1-c1cccc(-c2cnc3c(CNC[C@@H](O)CC(=O)O)cccc3c2)c1C [Example 452] | 144 | 6.60 | 10.12 |
| Cc1c(COc2cc(OCc3cncc(C#N)c3)c(CN[C@@](C)(CO)C(=O)O)cc2Cl)cccc1-c1cccc(-c2nnc(CCN3CC[C@@H](O)C3)o2)c1C [Example 453] | 326 | 6.05 | 9.95 |
| Cc1c(COc2cc(OCc3cncc(C#N)c3)c(CN3CC[C@@H](O)C3)cc2Cl)cccc1-c1cccc(-c2ncc(CN3CC[C@@H](O)C3)cn2)c1C [Example 454] | 943 | 6.02 | 8.99 |
| Cc1c(COc2cc(OCc3cncc(C#N)c3)c(CN[C@@](C)(CO)C(=O)O)cc2Cl)cccc1-c1cccc(-c2ncc(CN3CC[C@@H](O)C3)cn2)c1C [Example 455] | 686 | 5.81 | 9.76 |
| Cc1c(COc2cc(OCc3cncc(C#N)c3)c(CNC[C@@H](O)CC(=O)O)cc2Cl)cccc1-c1cccc(-c2ccc(OCCNCCO)c(C(N)=O)c2)c1C [Example 456] | 182 | 5.91 | 9.57 |
| Cc1c(COc2cc(OCc3cncc(C#N)c3)c(CN[C@@](C)(CO)C(=O)O)cc2Cl)cccc1-c1cc(F)cc(-c2ccc(CN(C)C)cc2)c1Cl [Example 457] | 49.3 | 5.81 | 10.19 |
| CNC(=O)c1cc(-c2cccc(-c3cccc(COc4cc(OCc5cncc(C#N)c5)c(CNC[C@@H](O)CC(=O)O)cc4Cl)c3C)c2C)ccc1OCCNCCO [Example 458] | 139 | 6.37 | 9.49 |
| Cc1c(COc2cc(OCc3cncc(C#N)c3)c(CN[C@@](C)(CO)C(=O)O)cc2Cl)cccc1-c1cccc(-c2ccc(OCCNCCO)c(C(=O)NC3CC3)c2)c1C [Example 459] | 89.9 | 5.92 | 10.19 |
| Cc1c(COc2cc(OCc3cncc(C#N)c3)c(CNC[C@@H](O)CC(=O)O)cc2Cl)cccc1-c1cccc(-c2ccc(CNC[C@@H](O)CC(=O)O)c(SC(F)F)c2)c1C [Example 460] | 302 | 6.95 | 9.83 |
| Cc1c(COc2cc(OCc3cncc(C#N)c3)c(CNC[C@@H](O)CC(=O)O)cc2Cl)cccc1-c1cccc(-c2ccc(CNC[C@@H](O)CC(=O)O)c(OC(F)F)c2)c1C [Example 461] | 128 | 7.33 | 10.19 |
| N#CCOc1cc(-c2cccc(-c3cccc(-c4ccc(CNC[C@@H]5CCC(=O)N5)c(OCC#N)c4)c3Cl)c2Cl)ccc1CNC[C@@H]1CCC(=O)N1 [Example 463] | 71.3 | 6.91 | 9.80 |
| Cc1c(COc2cc(OCc3cncc(C#N)c3)c(CNC[C@@H](O)CC(=O)O)cc2Cl)cccc1-c1cccc(-c2ccc(C3=NCCN3)c(OC(F)F)c2)c1C [Example 464] | 87.6 | 6.82 | 10.00 |
| Cc1c(COc2cc(OCc3cncc(C#N)c3)c(CNC[C@@H](O)CC(=O)O)cc2Cl)cccc1-c1cccc(-c2ccc(C3=NCCN3)c(OCCCC#N)c2)c1C [Example 465] | 84.8 | 6.71 | 9.94 |
| Cc1c(COc2cc(OCc3cncc(C#N)c3)c(CNC[C@@H](O)CC(=O)O)cc2Cl)cccc1-c1cccc(-c2ccc(C3=NCCN3)c(OCCCC#N)n2)c1C [Example 466] | 44.1 | 7.03 | 10.19 |
| Cc1c(COc2cc(OCc3cc(S(C)(=O)=O)cc(S(C)(=O)=O)c3)c(CN[C@@](C)(CO)C(=O)O)cc2Cl)cccc1-c1cccc(-c2ccc(CCCN3CC[C@@H](O)C3)cc2)c1C [Example 467] | 111 | 6.71 | 9.79 |

Other lines, results leading:

| AC50 (PD-L1) [nM] | pEC50 (PD-1/PD-L1 interaction) | pIC50 (PD-1/PD-L1) | Structure (SMILES) |
| --- | --- | --- | --- |
| 131 | 6.74 | 9.25 | COc1ccc2cc(-c3cccc(-c4cccc(COc5cc(OCc6cncc(C#N)c6)c(CNC[C@@H](O)CC(=O)O)cc5Cl)c4C)c3C)ccc2c1CNC[C@@H](O)CC(=O)O [Example 468] |
| 73.5 | 6.90 | 10.19 | Cc1c(COc2cc(OCc3cncc(C#N)c3)c(CN[C@@](C)(CO)C(=O)O)cc2Cl)cccc1-c1cccc(-c2ccc3c(c2)ncc(=O)n3CCN(C)C)c1C [Example 469] |
| 127 | 6.66 | 10.02 | Cc1c(COc2cc(OCc3cncc(C(N)=O)c3)c(CN[C@@](C)(CO)C(=O)O)cc2Cl)cccc1-c1cccc(-c2ccc3c(c2)[C@@H](O)C[C@H]3N)c1C [Example 470] |
| 80 | 6.84 | 9.69 | Cc1c(COc2nc(OCc3cc(C#N)cc(C#N)c3)c(CNC(C)(CO)C(=O)O)cc2Cl)cccc1-c1cccc(-c2ccc(OCCNCCO)cc2)c1C (stereo not drawn) [Example 471] |
| 76.8 | 7.07 | 9.80 | Cc1c(COc2cc(OCc3cncc(C#N)c3)c(CNC[C@@H](O)CC(=O)O)cc2Cl)cccc1-c1cccc(-c2ccc3c(c2)CC(NCCO)C3)c1C (stereo partly drawn) [Example 473] |
| 137 | 7.23 | 10.19 | Cc1c(COc2cc(OCc3cncc(C#N)c3)c(CNC[C@@H](O)CC(=O)O)cc2Cl)cccc1-c1cccc(-c2ccc3c(c2)CC(NCC(=O)O)C3)c1C (stereo partly drawn) [Example 474] |
| 134 | 6.93 | 10.06 | Cc1c(COc2cc(OCc3cncc(C#N)c3)c(CN[C@@](C)(CO)C(=O)O)cc2Cl)cccc1-c1cccc(-c2ccc3c(cnn3CCN3CC[C@@H](O)C3)n2)c1C [Example 475] |
| 149 | 6.71 | 8.96 | Cn1cc(CN2CC3(CCC(=O)N3)C2)c2ccc(-c3cccc(-c4cccc(-c5ccc6c(CN7CC8(CCC(=O)N8)C7)cn(C)c6n5)c4Cl)c3Cl)nc21 [Example 476] |
| 360 | 6.75 | 8.98 | COc1cc(-c2cccc(-c3cccc(-c4ccc(CNC[C@@H]5CCC(=O)N5)c(OC)c4)c3Br)c2Br)ccc1CNC[C@@H]1CCC(=O)N1 [Example 477] |
| 268 | 7.32 | 10.19 | C[C@@](CO)(NCc1cc(Cl)c(OCc2cccc(-c3cccc(COc4cc(OCc5cncc(C#N)c5)c(CN[C@@](C)(CO)C(=O)O)cc4Cl)c3Br)c2Br)cc1OCc1cncc(C#N)c1)C(=O)O [Example 478] |
| 348 | 7.35 | 10.01 | N#Cc1cncc(COc2cc(OCc3cccc(-c4cccc(COc5cc(OCc6cncc(C#N)c6)c(CNC[C@@H](O)CC(=O)O)cc5Cl)c4Br)c3Br)c(Cl)cc2CNC[C@@H](O)CC(=O)O)c1 [Example 479] |
| 114 | 6.83 | 8.95 | Cc1c(COc2cc(OCc3cncc(C#N)c3)c(CNCCO)cc2Cl)cccc1-c1cccc(COc2cc(OCc3cncc(C#N)c3)c(CNCCO)cc2Cl)c1Br [Example 480] |
